The values below come from ChEMBL document CHEMBL3430912, “GSK Tres Cantos Anti-Kinetoplastid Screening (TCAKS) Data”.

As a reminder, the IC50 is the concentration that gives 50% inhibition.

Data set [1] relates to Trypanosoma brucei brucei. The data set can be described thus: GSK_TCAKS: pIC50 Trypanosoma brucei viability assay using fluorescence intensity. Assay plates (1536-well) were prepared by dispensing 25nL of compound solution per well using an Echo acoustic dispenser (Labcyte). Format: functional, organism-based. Conditions: Lister 427, 2 h.
Data set [2] can be described thus: GSK_TCAKS: pIC50 HepG2 human cell line viability assay using luminiscence. […] Seeding density was checked to ensure that new mono-layers were not more than 50% confluent at the time of harvesting. Cell suspension was added to 500 mL of the same medium at a final density of 1.2 * 10^5 cells/mL. This cell suspension was dispensed (25 uL, 3000 cells per well) into 384-well clear-bottom plates using a Multidrop Combi dispenser. Prior to addition of the cell suspension, the screening compounds (250 nL) were pre-dispensed into the plates with an Echo liquid handler. Plates were incubated for 48 h at 37C, 5% CO2. After incubation, plates equilibrated at room temperature for 30 min before proceeding to develop the luminescent signal. The signal developer, CellTiter-Glo Reagent, was allowed to equilibrate at room temperature for 30 min and added to the plates (25uL per well) using a Multidrop Combi dispenser. Plates were left for 10 min at room temperature for stabilization and then read using a ViewLux. The format is toxicity, cell-based. On the technique in general: Cellular ATP, detected with luciferase, serves as a proxy for viable cell number.

Data set [3] relates to Leishmania donovani. The data set is described as follows: GSK_TCAKS: pIC50 Leishmania donovani viability assay using fluorescence intensity. Assay plates (1536-well) were prepared by adding 30nL per well of compound. For single shot assay, the final compound concentration was 5uM. […] Briefly, eGFP LdBOB axenic amastigotes were harvested, fixed and counted in a CASY cell counter (Roche-Applied Science). A final concentration of 1.5 * 10^5 cells per well were prepared in amastigote media containing 500 U/mL penicillin/streptomycin (Invitrogen) and 6uL was dispensed to each experimental well using a Multidrop Combi dispenser (Thermo Scientific). 6uL of assay media was dispensed to control columns used as reference for 100% compound response. Following incubation for 72 h at 37C, 5% CO2, 2 uL of resazurin was added to each well at a final concentration of 0.5 mM in phosphate buffered saline (PBS) with IGEPAL (Sigma-Aldrich), 0.05% (v/v). The format is functional, organism-based. (In general: The colour change of resazurin is a common sign of viable cells or microbes.)

In data set [4] the test system is Leishmania donovani. The data set is described as follows: GSK_TCAKS: pIC50 Leishmania donovani Imaging: THP-1 Host Macrophages. Assay plates (384-well) were prepared by adding 250nL of compound to each well. For single shot assay, the final compound concentration was 5 uM. […] Automated image analysis was performed with a script developed on Acapella High Content Imaging and Analysis Software (PerkinElmer). Output: THP-1 cell count were reported for each well. The format is functional, organism-based, Homo sapiens.

For data set [5], the system named is Trypanosoma cruzi. The data set can be described thus: (§1) GSK_TCAKS: pIC50 Trypanosoma cruzi Imaging: Infected Cells. […] Cells were then washed once with PBS before infection. T. cruzi trypomastigotes, collected at days 5 to 8 after infection from LLC-MK2 parasite infected cultures, were allowed to swim out for 4h at 37C from a centrifuged pellet (2,500 rpm/10 min/room temperature). Trypomastigotes were then collected and counted in a CASY Cell Counter. Trypomastigotes, in supplemented DMEM, were added to H9c2 cultures in a multiplicity of infection of 1 and incubated for 18 h. Cells were washed once with PBS before incubation of the infected H9c2 monolayer with trypsin (Life-Technologies) to detach cells from the flask. Cells were counted in a CASY Cell Counter using a 150 um capillary and their density set at 5 * 10^4 cells per mL in supplemented assay DMEM. Infected H9c2 were dispensed into 384-well poly-lysine coated assay plates at 50uL per well using a Multidrop Combi dispenser. After seeding them, the plates were incubated at 37C, 5% CO2 for 72h. Cultures were then fixed and stained by addition of 50 uL of a solution containing 8% formaldehyde and 4 uM DRAQ5 DNA dye (BioStatus, UK) per well. […] Five images were collected per well for reliable statistical analysis. Automated image analysis was performed with a script developed on Acapella High Content Imaging and Analysis Software (PerkinElmer). Output: percentage of infected cells per well as a second infection marker. Format: functional, organism-based, Rattus norvegicus. The note with it: H9c2, 4 h.

The subject of data set [6] is Trypanosoma brucei brucei. The data set is described as follows: GSK_TCAKS: pIC50 Trypanosoma brucei viability assay using luminiscence. Assay plates (1536-well) were prepared. T. brucei cultures were harvested and counted in a CASY cell counter. A parasite suspension was prepared at a final concentration of 5 * 10^4 cells/mL in complete HMI9 medium and 6uL was dispensed to all wells containing compounds using a Multidrop Combi dispenser. 6uL of HMI9 media with 0.4% DMSO were dispensed to control columns. Plates were incubated for 24 h at 37C, 5% CO2 then tempered for 10 min at room temperature. ATP content was quantified by adding 4 uL of CellTiter-Glo Reagent (Promega) according to the manufacturer's instructions. Luminescence was measured using a ViewLux. The format is functional, organism-based. Conditions: Lister 427, CASY.

Data set [7] addresses Sterol 14-alpha demethylase (Trypanosoma cruzi (strain CL Brener), UniProt Q7Z1V1). The data set is described as follows: GSK_TCAKS: pIC50 CYP51 from Trypanosoma cruzi. Format: functional.
For data set [8], the system named is Leishmania donovani. The data set is described as follows: GSK_TCAKS: pIC50 Leishmania donovani Imaging: Amastigotes/Macrophages. Assay plates (384-well) were prepared by adding 250nL of compound to each well. For single shot assay, the final compound concentration was 5 uM. […] Automated image analysis was performed with a script developed on Acapella High Content Imaging and Analysis Software (PerkinElmer). Output: Average number of amastigotes per macrophage cell were reported for each well. Conditions: THP-1. The format is functional, organism-based, Homo sapiens.

The subject of data set [9] is Leishmania donovani. The data set can be described thus: GSK_TCAKS: pIC50 Leishmania donovani Imaging: Infected Macrophages. Assay plates (384-well) were prepared by adding 250nL of compound to each well. For single shot assay, the final compound concentration was 5 uM. […] Automated image analysis was performed with a script developed on Acapella High Content Imaging and Analysis Software (PerkinElmer). Output: Percent of infected macrophage cells were reported for each well. Format: functional, organism-based, Homo sapiens. Conditions: THP-1.

In data set [10] the test system is Trypanosoma cruzi. The data set can be described thus: GSK_TCAKS: pIC50 Trypanosoma cruzi Imaging: Amastigotes/Cell. […] Cells were then washed once with PBS before infection. T. cruzi trypomastigotes, collected at days 5 to 8 after infection from LLC-MK2 parasite infected cultures, were allowed to swim out for 4h at 37C from a centrifuged pellet (2,500 rpm/10 min/room temperature). Trypomastigotes were then collected and counted in a CASY Cell Counter. Trypomastigotes, in supplemented DMEM, were added to H9c2 cultures in a multiplicity of infection of 1 and incubated for 18 h. Cells were washed once with PBS before incubation of the infected H9c2 monolayer with trypsin (Life-Technologies) to detach cells from the flask. Cells were counted in a CASY Cell Counter using a 150 um capillary and their density set at 5 * 10^4 cells per mL in supplemented assay DMEM. Infected H9c2 were dispensed into 384-well poly-lysine coated assay plates at 50uL per well using a Multidrop Combi dispenser. After seeding them, the plates were incubated at 37C, 5% CO2 for 72h. Cultures were then fixed and stained by addition of 50 uL of a solution containing 8% formaldehyde and 4 uM DRAQ5 DNA dye (BioStatus, UK) per well. […] Five images were collected per well for reliable statistical analysis. Automated image analysis was performed with a script developed on Acapella High Content Imaging and Analysis Software (PerkinElmer). Output: number of amastigotes per cell as infection level measurement. The format is functional, organism-based, Rattus norvegicus. The note with it: H9c2, 4 h.

The subject of data set [11] is Trypanosoma cruzi. The description is as §1, with “H2C9” for “Trypanosoma cruzi”, “H9c2 Host Cardiomyocytes.” for “Infected Cells.”, “Number” for “percentage”, “H9c2 Host Cardiomyocytes nuclei to determine drug-related cytotoxicity.” for “infected cells per well as a second infection marker.”. The format is functional, organism-based, Rattus norvegicus. The note with it: H9c2, 4 h.

Data set [12] deals with Trypanosoma cruzi. The data set can be described thus: GSK_TCAKS: pIC50 Trypanosoma cruzi viability assay using beta-GAL activity. This assay was run at single shot at 5uM compound concentration per well. The biological reagents consisted of NIH-3T3 host cells and trypomastigotes parasitic cells; both cell types were set to a 3.3 * 10^5 cells/mL dilution in assay DMEM by means of a CASY cell counter device using a 60um capillary. 6 uL of the mixture were dispensed per well (about 1 * 10^3 host-cells and 1 * 10^3 parasites) with a Multidrop Combi dispenser. […] In all wells, the percentage of DMSO never exceeded 0.5%. Plates incubated for four days at 37C, 5% CO2. The substrate used for the assay fluorescence intensity (FLINT) readout was resorufin-beta-D-galactopiranoside (Sigma-Aldrich) at 5uM per well. It was diluted in PBS supplemented with the soft detergent Igepal (Fluka). The format is functional, organism-based, Mus musculus. Conditions: Tulahuen, NIH3T3.

Sterol 14-alpha demethylase, sequence (Q7Z1V1 whole entry): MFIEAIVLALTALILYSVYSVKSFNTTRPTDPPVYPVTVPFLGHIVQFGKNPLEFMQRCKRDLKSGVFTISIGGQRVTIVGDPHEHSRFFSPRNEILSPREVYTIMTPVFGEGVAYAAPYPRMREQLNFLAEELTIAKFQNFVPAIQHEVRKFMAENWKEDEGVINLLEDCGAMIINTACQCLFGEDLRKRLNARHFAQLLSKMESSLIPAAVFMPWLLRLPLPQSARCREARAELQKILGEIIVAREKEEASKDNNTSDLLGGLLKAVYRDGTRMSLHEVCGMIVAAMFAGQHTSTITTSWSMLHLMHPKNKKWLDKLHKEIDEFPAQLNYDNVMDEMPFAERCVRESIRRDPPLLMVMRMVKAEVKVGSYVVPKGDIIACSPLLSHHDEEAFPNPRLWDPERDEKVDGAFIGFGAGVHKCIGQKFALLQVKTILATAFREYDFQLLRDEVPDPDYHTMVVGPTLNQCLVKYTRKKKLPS

With `CNC(=O)C1Cc2ccccc2N1C(=O)Cc1ccc(OC)cc1` (centres undefined), the IC50 in data set [1] was 0.398 µM; in the data set on Leishmania donovani [3] it was more than 50.1 µM; in the data set with Leishmania donovani [4], 7.94 µM; with Trypanosoma cruzi [5] it was more than 50.1 µM; in data set [6], 0.501 µM; in data set [7] it was more than 100 µM. Moreover, the IC50 in the data set on Leishmania donovani [8] was 12.6 µM; in the data set on Leishmania donovani [9], 7.94 µM; in the data set with Trypanosoma cruzi [10], more than 50.1 µM; with Trypanosoma cruzi [11], more than 50.1 µM; in the data set with Trypanosoma cruzi [12], more than 50.1 µM. The molecule also showed an IC50 at 48 h in data set [2] of more than 100 µM.

On to `N#CN1CC[C@@H](NC(=O)Nc2ccccc2Oc2ccccc2)C1`, for which the IC50 in data set [1] is 1 µM; with Leishmania donovani [3] it was 3.16 µM; in the data set on Leishmania donovani [4], 25.1 µM; with Trypanosoma cruzi [5] it was 3.98 µM; in data set [6] it was 7.94 µM; in data set [7], more than 100 µM. The IC50 in the data set on Leishmania donovani [8] was 3.98 µM; with Leishmania donovani [9], 5.01 µM; in the data set with Trypanosoma cruzi [10], 5.01 µM; with Trypanosoma cruzi [11], 20 µM; in the data set on Trypanosoma cruzi [12], 5.01 µM. The IC50 at 48 h in data set [2] was 39.8 µM.

On to `CCOc1cc(NCCCN2CCN(C)CC2)c2ncccc2c1`, for which the half-maximal inhibitory concentration (IC50) was 12.6 µM in data set [1]; 39.8 µM in the data set on Leishmania donovani [3]; 6.31 µM with Leishmania donovani [4]; 1.26 µM in the data set on Trypanosoma cruzi [5]; 20 µM in data set [6]; more than 100 µM in data set [7]. In addition, the half-maximal inhibitory concentration (IC50) was 0.794 µM in the data set with Leishmania donovani [8]; 1.26 µM in the data set on Leishmania donovani [9]; 1 µM with Trypanosoma cruzi [10]; 31.6 µM in the data set with Trypanosoma cruzi [11]; 1.78 µM in the data set with Trypanosoma cruzi [12]. The molecule also had an IC50 at 48 h in data set [2] of 31.6 µM.

Consider `CN(CC1CCCO1)S(=O)(=O)c1ccc(C(=O)Nc2nc(-c3ccccn3)cs2)cc1` (centres undefined), for which the IC50 in [1] was 0.501 µM; with Leishmania donovani [3], 1.26 µM; with Leishmania donovani [4] it was 7.94 µM; in the data set with Trypanosoma cruzi [5], 2 µM; in [6] it was 0.631 µM; in data set [7] it was 7.94 µM. The IC50 in the data set on Leishmania donovani [8] was 3.16 µM; in the data set on Leishmania donovani [9], 6.31 µM; in the data set on Trypanosoma cruzi [10] it was 1.26 µM; with Trypanosoma cruzi [11], 20 µM; with Trypanosoma cruzi [12], 1.58 µM. Also, the IC50 at 48 h in [2] is 63.1 µM.

As to `c1ccc(CNc2cccc3ccncc23)cc1`, the 50% inhibitory concentration (IC50) in data set [1] is 25.1 µM; with Leishmania donovani [3] it was 10 µM; in the data set with Leishmania donovani [4] it was 50.1 µM; in the data set with Trypanosoma cruzi [5] it was 6.31 µM; in data set [6] it was more than 39.8 µM; in data set [7] it was 0.1 µM. Also, the IC50 is 5.01 µM in the data set on Leishmania donovani [8]; 7.94 µM in the data set with Leishmania donovani [9]; 5.01 µM in the data set on Trypanosoma cruzi [10]; more than 50.1 µM with Trypanosoma cruzi [11]; 6.31 µM in the data set on Trypanosoma cruzi [12]. This molecule also had an IC50 at 48 h in [2] of more than 100 µM.

Turning to `CCC(CC)C(=O)Nc1cccc(C(=O)Nc2nnc(C3CCCCC3)s2)c1`, the IC50 in [1] was 0.251 µM; in the data set with Leishmania donovani [3], more than 50.1 µM; in the data set with Leishmania donovani [4], more than 50.1 µM; in the data set on Trypanosoma cruzi [5] it was 25.1 µM; in data set [6], 0.631 µM; in data set [7], more than 100 µM. The IC50 in the data set on Leishmania donovani [8] is more than 50.1 µM; with Leishmania donovani [9], more than 50.1 µM; in the data set on Trypanosoma cruzi [10], 15.8 µM; with Trypanosoma cruzi [11], more than 50.1 µM; in the data set with Trypanosoma cruzi [12] it was 10 µM. In data set [2], this molecule had an IC50 at 48 h of more than 100 µM.

In the case of `CCc1cccc(CC)c1-n1c(SCC(=O)N2CC(=O)Nc3ccccc32)nnc1-c1cccnc1`, the concentration for half-maximal inhibition (IC50) was 0.501 µM in data set [1]; 39.8 µM in the data set with Leishmania donovani [3]; more than 50.1 µM with Leishmania donovani [4]; 31.6 µM with Trypanosoma cruzi [5]; 1 µM in [6]; 3.16 µM in data set [7]. Also, the 50% inhibitory concentration (IC50) with Leishmania donovani [8] is more than 50.1 µM; in the data set on Leishmania donovani [9] it was more than 50.1 µM; with Trypanosoma cruzi [10], 25.1 µM; with Trypanosoma cruzi [11] it was more than 50.1 µM; with Trypanosoma cruzi [12], 25.1 µM. Further, the half-maximal inhibitory concentration (IC50) at 48 h in data set [2] was more than 100 µM.
